Reference: ChEMBL document CHEMBL3856212, “Synthesis, anti-proliferative and genotoxicity studies of 6-chloro-5-(2-substituted-ethyl)-1,3-dihydro-2H-indol-2-ones and 6-chloro-5-(2-chloroethyl)-3-(alkyl/ary-2-ylidene)indolin-2-ones” (Eur J Med Chem, 2016)

Key:
[1] = Cytotoxicity against human NCI-H226 cells assessed as assessed as growth inhibition at 10^-5 M after 48 hrs by SRB assay relative to control; type: functional; conditions: NCI-H226, 48 h, read-out: GI
[2] = Cytotoxicity against human NCI-H460 cells assessed as assessed as growth inhibition at 10^-5 M after 48 hrs by SRB assay relative to control; type: functional; conditions: NCI-H460, 48 h, read-out: GI
[3] = Cytotoxicity against human MDA-MB-231 cells assessed as assessed as growth inhibition at 10^-5 M after 48 hrs by SRB assay relative to control; type: functional; conditions: MDA-MB-231, 48 h, read-out: GI
[4] = Cytotoxicity against human LOXIMVI cells assessed as assessed as growth inhibition at 10^-5 M after 48 hrs by SRB assay relative to control; type: functional; conditions: LOX IMVI, read-out: GI
[5] = Cytotoxicity against human OVCAR5 cells assessed as growth inhibition after 48 hrs by SRB assay; type: functional; conditions: OVCAR-5, 48 h
[6] = Cytotoxicity against human SK-MEL-5 cells assessed as growth inhibition after 48 hrs by SRB assay; type: functional; conditions: SK-MEL-5, 48 h
[7] = Cytotoxicity against human A549 cells assessed as growth inhibition after 48 hrs by SRB assay; type: functional; conditions: A549, 48 h
[8] = Cytotoxicity against human SK-MEL-2 cells assessed as growth inhibition after 48 hrs by SRB assay; type: functional; conditions: SK-MEL-2, 48 h
[9] = Cytotoxicity against human BT549 cells assessed as assessed as growth inhibition at 10^-5 M after 48 hrs by SRB assay relative to control; type: functional; conditions: BT-549, 48 h, read-out: GI
[10] = Cytotoxicity against human Hs 578T cells assessed as growth inhibition after 48 hrs by SRB assay; type: functional
[11] = Cytotoxicity against human Caki1 cells assessed as assessed as growth inhibition at 10^-5 M after 48 hrs by SRB assay relative to control; type: functional; conditions: CAKI-1, 48 h, read-out: GI
[12] = Cytotoxicity against human SNB19 cells assessed as growth inhibition after 48 hrs by SRB assay; type: functional; conditions: SNB-19, 48 h
[13] = Cytotoxicity against human T47D cells assessed as growth inhibition after 48 hrs by SRB assay; type: functional
[14] = organism: Mus musculus; assay: Genotoxicity in mouse EAC cells at 375 uM after 24 hrs by micronucleus assay (reference value: 3.5 +/- 0.30%); type: toxicity, cell-based; conditions: ehrlich
[15] = Cytotoxicity against human RXF393 cells assessed as assessed as growth inhibition at 10^-5 M after 48 hrs by SRB assay relative to control; type: functional; conditions: RXF 393, 48 h, read-out: GI
[16] = Cytotoxicity against human EKVX cells assessed as assessed as growth inhibition at 10^-5 M after 48 hrs by SRB assay relative to control; type: functional; conditions: read-out: GI
[17] = Cytotoxicity against human HL-60(TB) cells assessed as growth inhibition after 48 hrs by SRB assay; type: functional; conditions: HL-60, 48 h
[18] = Induction of apoptosis in mouse EAC cells at 500 uM after 24 hrs by acridine orange dye-based fluorescence microscopy (reference value: 0.66 +/- 0.33%); type: cell-based; conditions: ehrlich
[19] = organism: Mus musculus; assay: Genotoxicity in mouse EAC cells at 250 uM after 24 hrs by micronucleus assay (reference value: 3.5 +/- 0.30%); type: toxicity, cell-based; conditions: ehrlich
[20] = Cytotoxicity against human OVCAR3 cells assessed as growth inhibition after 48 hrs by SRB assay; type: functional; conditions: OVCAR-3, 48 h
[21] = Cytotoxicity against human SF539 cells assessed as growth inhibition after 48 hrs by SRB assay; type: functional; conditions: SF-539, 48 h
[22] = Cytotoxicity against human UACC257 cells assessed as growth inhibition after 48 hrs by SRB assay; type: functional; conditions: UACC-257, 48 h
[23] = Cytotoxicity against human SK-MEL-28 cells assessed as assessed as growth inhibition at 10^-5 M after 48 hrs by SRB assay relative to control; type: functional; conditions: SK-MEL-28, 48 h, read-out: GI
[24] = Cytotoxicity against human U251 cells assessed as assessed as growth inhibition at 10^-5 M after 48 hrs by SRB assay relative to control; type: functional; conditions: U-251, 48 h, read-out: GI
[25] = Cytotoxicity against human NCI-H460 cells assessed as growth inhibition after 48 hrs by SRB assay; type: functional; conditions: NCI-H460, 48 h
[26] = Cytotoxicity against human OVCAR5 cells assessed as assessed as growth inhibition at 10^-5 M after 48 hrs by SRB assay relative to control; type: functional; conditions: OVCAR-5, 48 h, read-out: GI
[27] = Cytotoxicity against human UACC62 cells assessed as assessed as growth inhibition at 10^-5 M after 48 hrs by SRB assay relative to control; type: functional; conditions: UACC-62, 48 h, read-out: GI
[28] = organism: Mus musculus; assay: Genotoxicity in mouse EAC cells at 125 uM after 24 hrs by micronucleus assay (reference value: 3.5 +/- 0.30%); type: toxicity, cell-based; conditions: ehrlich
[29] = Cytotoxicity against human A498 cells assessed as assessed as growth inhibition at 10^-5 M after 48 hrs by SRB assay relative to control; type: functional; conditions: A498, 48 h, read-out: GI
[30] = Cytotoxicity against human UO31 cells assessed as assessed as growth inhibition at 10^-5 M after 48 hrs by SRB assay relative to control; type: functional; conditions: UO-31, 48 h, read-out: GI
[31] = Cytotoxicity against human OVCAR8 cells assessed as growth inhibition after 48 hrs by SRB assay; type: functional; conditions: OVCAR-8, 48 h
[32] = Cytotoxicity against human NCI-H226 cells assessed as growth inhibition after 48 hrs by SRB assay; type: functional; conditions: NCI-H226, 48 h
[33] = Cytotoxicity against human OVCAR4 cells assessed as growth inhibition after 48 hrs by SRB assay; type: functional; conditions: OVCAR-4, 48 h
[34] = Cytotoxicity against human SNB75 cells assessed as assessed as growth inhibition at 10^-5 M after 48 hrs by SRB assay relative to control; type: functional; conditions: SNB-75, 48 h, read-out: GI
[35] = read-out: LD50 (the source's name)

**Q.** For `O=C1Cc2cc(CCn3cncn3)c(Cl)cc2N1`, which inhibition of growth at 10 µM [1] is on record?
**A.** 25.2%

**Q.** And the inhibition of growth at 10 µM [2]?
**A.** 16.1%

**Q.** And the inhibition of growth at 10 µM [3]?
**A.** 44%

**Q.** And the inhibition of growth at 10 µM [4]?
**A.** 19%

**Q.** And the GI50 [5]?
**A.** 1 µM

**Q.** And the TGI [5]?
**A.** > 1 µM

**Q.** And the CC50 [5, 35]?
**A.** > 1 µM

**Q.** What about the GI50 [6] of the same compound?
**A.** 1.01 µM

**Q.** And the TGI [6]?
**A.** > 1 µM

**Q.** And the CC50 [6, 35]?
**A.** > 1 µM

**Q.** And the GI50 [7]?
**A.** 1.65 µM

**Q.** What about the TGI [7] of the same compound?
**A.** > 1 µM

**Q.** What about the CC50 [7, 35] of the same compound?
**A.** > 1 µM

**Q.** And the GI50 [8]?
**A.** 1.24 µM

**Q.** And the TGI [8]?
**A.** > 1 µM

**Q.** And the CC50 [8, 35]?
**A.** > 1 µM

**Q.** And the inhibition of growth at 10 µM [9]?
**A.** 32%

**Q.** And the GI50 [10]?
**A.** 7.2 µM

**Q.** What about the TGI [10] of the same compound?
**A.** > 1 µM

**Q.** And the CC50 [10, 35]?
**A.** > 1 µM

**Q.** What about the inhibition of growth at 10 µM [11] of the same compound?
**A.** 40%

**Q.** What about the GI50 [12] of the same compound?
**A.** 7.07 µM

**Q.** What about the TGI [12] of the same compound?
**A.** > 1 µM

**Q.** What about the CC50 [12, 35] of the same compound?
**A.** > 1 µM

**Q.** And the GI50 [13]?
**A.** 1 µM

**Q.** What about the TGI [13] of the same compound?
**A.** > 1 µM

**Q.** What about the CC50 [13, 35] of the same compound?
**A.** > 1 µM

**Q.** And the Activity [14]?
**A.** 4.13%

**Q.** What about the inhibition of growth at 10 µM [15] of the same compound?
**A.** 38%

**Q.** And the inhibition of growth at 10 µM [16]?
**A.** 70.5%

**Q.** And the GI50 [17]?
**A.** 1 µM

**Q.** What about the TGI [17] of the same compound?
**A.** > 1 µM

**Q.** And the CC50 [17, 35]?
**A.** > 1 µM

**Q.** What about the Activity [18] of the same compound?
**A.** 0.36%

**Q.** And the Activity [19]?
**A.** 3.5%

**Q.** What about the GI50 [20] of the same compound?
**A.** 1 µM

**Q.** What about the TGI [20] of the same compound?
**A.** > 1 µM

**Q.** And the CC50 [20, 35]?
**A.** > 1 µM

**Q.** And the GI50 [21]?
**A.** 1 µM

**Q.** And the TGI [21]?
**A.** > 1 µM

**Q.** What about the CC50 [21, 35] of the same compound?
**A.** > 1 µM

**Q.** And the GI50 [22]?
**A.** 7.14 µM

**Q.** And the TGI [22]?
**A.** > 1 µM

**Q.** What about the CC50 [22, 35] of the same compound?
**A.** > 1 µM

**Q.** And the inhibition of growth at 10 µM [23]?
**A.** 32.8%

**Q.** And the inhibition of growth at 10 µM [24]?
**A.** 26.6%

**Q.** And the GI50 [25]?
**A.** 6.86 µM

**Q.** And the TGI [25]?
**A.** > 1 µM

**Q.** What about the CC50 [25, 35] of the same compound?
**A.** > 1 µM

**Q.** And the inhibition of growth at 10 µM [26]?
**A.** 12.6%

**Q.** What about the inhibition of growth at 10 µM [27] of the same compound?
**A.** 31.8%

**Q.** And the Activity [28]?
**A.** 3.27%

**Q.** What about the inhibition of growth at 10 µM [29] of the same compound?
**A.** 52.9%

**Q.** And the inhibition of growth at 10 µM [30]?
**A.** 34%

**Q.** What about the GI50 [31] of the same compound?
**A.** 6.94 µM

**Q.** And the TGI [31]?
**A.** > 1 µM

**Q.** What about the CC50 [31, 35] of the same compound?
**A.** > 1 µM

**Q.** And the GI50 [32]?
**A.** 1 µM

**Q.** And the TGI [32]?
**A.** > 1 µM

**Q.** And the CC50 [32, 35]?
**A.** > 1 µM

**Q.** And the GI50 [33]?
**A.** 1 µM

**Q.** What about the TGI [33] of the same compound?
**A.** > 1 µM

**Q.** What about the CC50 [33, 35] of the same compound?
**A.** > 1 µM

**Q.** And the inhibition of growth at 10 µM [34]?
**A.** 36.5%
